The target in one data set is Keap1/Nrf2 (Homo sapiens, UniProt Q14145). The data set is described as follows: disruptors of Keap1 binding to Nrf2 peptide – biochemical, fluorescence polarization, cherry-picked samples, dose response (AID 588683).
A short description of data set [1]: alpha-synuclein stem-loop luciferase translation blockers – H4 neuroglioma cells, luminescence, confirmation (AID 1988). In kind it is functional, cell-based.
In data set [2] the target is T1, Kappa-type opioid receptor (Homo sapiens, UniProt P41145). In kind it is functional.
T1 sequence (P41145 whole entry): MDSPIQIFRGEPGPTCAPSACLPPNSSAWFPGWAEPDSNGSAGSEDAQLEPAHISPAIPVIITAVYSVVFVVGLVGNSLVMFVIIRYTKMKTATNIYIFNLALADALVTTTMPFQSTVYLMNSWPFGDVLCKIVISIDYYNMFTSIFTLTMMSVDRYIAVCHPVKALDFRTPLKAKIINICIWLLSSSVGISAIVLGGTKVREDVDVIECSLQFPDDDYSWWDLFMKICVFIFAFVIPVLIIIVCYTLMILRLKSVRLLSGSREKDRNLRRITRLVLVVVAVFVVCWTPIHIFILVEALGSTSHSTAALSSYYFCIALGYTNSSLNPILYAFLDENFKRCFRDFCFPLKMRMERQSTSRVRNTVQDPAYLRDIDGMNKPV
A short description of the next data set: cells. It counts as functional.
The nature of data set [3]: luciferase reporter signal suppression in cells – H4 neuroglioma cells, luminescence, dose response (AID 1990). In kind it is functional, cell-based.
Data set [4] in a line: HEK-293T viability loss after treatment – luminescence, T-cell screen hits, cytotoxicity control for TCR NF-kB inhibitor project, dose response (AID 489026).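 Note: cells exposed to compound about 14 hours before the viability readout.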 It counts as functional, cell-based.
The subject of data set [5] is BJ. The data set is described as follows: cells. In kind it is functional, cell-based. Conditions: Homo sapiens.
Data set [6] has as its target T2, Beta-galactosidase (Escherichia coli, UniProt Q8VNN2). Nature of the data set: PubChem AID 485352. It counts as functional.
Data set [7] is described as follows: general cell-killing toxicity readout – plate reader, dry powder samples, cytotoxicity control for PAX8 inhibitor project, dose response (AID 743021). It counts as functional, cell-based.
Data set [8] has as its system BJ. The data set is described as follows: BJ-TERT-LT-ST fibroblast viability loss – cell-based, RAS-independent, luminescence, dose response (AID 1935).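 Note: BJ fibroblasts immortalized with TERT plus LT and ST oncogenes.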 It counts as functional. The settings on record: Homo sapiens.
The target of data set [9] is T2, Beta-galactosidase. In kind it is functional.
A further data set deals with Mu-type opioid receptor (Homo sapiens, UniProt P35372). Nature of the data set: HTS Image-Based Screen for Agonists of the MOR Receptor. [Related pubchem assays (depositor defined):AID1777, AID1785, AID1786, AID2133]. It counts as functional.
Data set [10] in a line: loss of viability in HepG2 cells – cell-based, CellTiter-Glo, cherry-picked, cytotoxicity control for Shn3 inhibitor project, dose response (AID 624134). In kind it is functional.
A further data set concerns INS1. The data set is described as follows: INS-1E survival protection against cytokine death – cell-based, luminescence, retest, dose response (AID 449756).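 Note: cell death triggered by IL-1 beta plus TNF-alpha plus IFN-gamma mixture; protective hits raise ATP signal compared with cytokine alone wells.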 Conditions: Rattus norvegicus. It counts as functional.
A further data set deals with Paired box protein Pax-8 (Homo sapiens, UniProt Q06710). The data set is described as follows: PAX8 transcriptional activity inhibition in RMG-I – RMG-I cells, luciferase, cherry-pick, dose response (AID 687027).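 Note: luciferase reporter driven by Pax8 target thyroperoxidase promoter measured by SteadyGlo luminescence.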 In kind it is functional, cell-based.
Chain of Paired box protein Pax-8 (Q06710 whole entry): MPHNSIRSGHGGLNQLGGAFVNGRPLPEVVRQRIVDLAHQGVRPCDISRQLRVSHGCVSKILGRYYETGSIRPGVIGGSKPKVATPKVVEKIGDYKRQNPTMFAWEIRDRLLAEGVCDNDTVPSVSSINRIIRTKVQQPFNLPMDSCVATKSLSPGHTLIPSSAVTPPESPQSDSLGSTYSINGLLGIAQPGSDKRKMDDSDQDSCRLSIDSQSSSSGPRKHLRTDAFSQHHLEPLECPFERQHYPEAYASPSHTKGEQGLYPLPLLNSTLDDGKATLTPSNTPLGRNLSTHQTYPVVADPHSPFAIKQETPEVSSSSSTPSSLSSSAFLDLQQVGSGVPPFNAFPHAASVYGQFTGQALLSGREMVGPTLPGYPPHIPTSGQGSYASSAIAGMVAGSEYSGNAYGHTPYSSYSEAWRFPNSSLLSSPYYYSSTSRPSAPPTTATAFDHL
The test system of data set [11] is BJ. The data set is described as follows: BJ-TERT fibroblast viability loss – cell-based, RAS-independent, luminescence, dose response (AID 1933). Conditions: Homo sapiens. In kind it is functional.
Data set [12] addresses T1, Kappa-type opioid receptor. It counts as functional. The source holds these as a separate data set.
Data set [13] concerns the target T3, Delta-type opioid receptor (Homo sapiens, UniProt P41143). The data set is described as follows: HTS Image-Based Screen for Antagonists of the DOR Receptor. [Related pubchem assays (depositor defined):AID1777, AID1785, AID1786, AID2133]. It counts as functional.
In data set [14] the target is T4, Type-1 angiotensin II receptor (Homo sapiens, UniProt P30556).
T4 sequence (P30556 whole entry): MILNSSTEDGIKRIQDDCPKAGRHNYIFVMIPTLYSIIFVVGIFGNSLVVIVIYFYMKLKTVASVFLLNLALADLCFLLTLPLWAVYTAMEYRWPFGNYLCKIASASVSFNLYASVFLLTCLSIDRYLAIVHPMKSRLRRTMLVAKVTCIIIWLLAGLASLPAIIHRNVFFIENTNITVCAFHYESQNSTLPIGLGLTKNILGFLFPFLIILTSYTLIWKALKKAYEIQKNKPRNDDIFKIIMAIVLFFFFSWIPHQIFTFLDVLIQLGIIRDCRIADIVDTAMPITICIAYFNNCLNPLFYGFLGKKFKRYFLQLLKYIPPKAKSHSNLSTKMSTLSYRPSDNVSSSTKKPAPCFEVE
The data set is described as follows: antagonism of angiotensin II type 1 receptor – cell-based, uHTS hits, selectivity assay for APJ receptor antagonist project, dose response (AID 463214).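 Note: antagonist potency against angiotensin II stimulated AT1 response.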 It counts as functional.

A short description of data set [15]: Luminescence Cell-Based Dose Response HTS to Identify Inhibitors of 5'UTR Stem-Loop Driven Prion Protein mRNA Translation in H4 Neuroglioblastoma Cells. [Related pubchem assays: 1827 (Project Summary), 1813 (Primary HTS)]. It counts as functional.
Data set [16] can be described thus: non-specific 3'UTR reporter inhibition in Clone20-Shn3RL – cell-based, Renilla luciferase, cherry-picked, counter-screen for Shn3 inhibitor project, dose response (AID 624133). In kind it is functional.
The target in the next data set is T5, Protein RecA (Mycobacterium tuberculosis, UniProt P9WHJ3).
T5 sequence (P9WHJ3 whole entry): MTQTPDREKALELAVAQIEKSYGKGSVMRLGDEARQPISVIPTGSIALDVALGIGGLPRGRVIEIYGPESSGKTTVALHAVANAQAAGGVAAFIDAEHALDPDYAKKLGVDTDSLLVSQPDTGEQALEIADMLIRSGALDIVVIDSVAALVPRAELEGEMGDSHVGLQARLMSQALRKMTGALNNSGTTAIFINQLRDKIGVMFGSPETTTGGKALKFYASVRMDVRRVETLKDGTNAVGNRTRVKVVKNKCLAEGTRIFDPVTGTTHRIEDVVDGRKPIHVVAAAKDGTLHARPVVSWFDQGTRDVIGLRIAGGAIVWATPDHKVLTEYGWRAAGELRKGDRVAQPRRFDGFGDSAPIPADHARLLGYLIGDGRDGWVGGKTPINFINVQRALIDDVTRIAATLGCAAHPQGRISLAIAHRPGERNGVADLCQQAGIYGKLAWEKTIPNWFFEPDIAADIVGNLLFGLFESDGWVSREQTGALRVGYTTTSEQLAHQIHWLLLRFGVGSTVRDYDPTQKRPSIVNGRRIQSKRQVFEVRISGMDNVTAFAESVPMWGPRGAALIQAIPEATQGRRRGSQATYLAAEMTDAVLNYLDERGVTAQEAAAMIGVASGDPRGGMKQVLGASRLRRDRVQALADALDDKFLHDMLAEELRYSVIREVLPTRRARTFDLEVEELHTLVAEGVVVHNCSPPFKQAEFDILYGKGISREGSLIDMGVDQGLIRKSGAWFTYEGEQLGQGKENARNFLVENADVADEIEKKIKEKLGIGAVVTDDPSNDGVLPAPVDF
The data set is described as follows: Fluorescence Cell-Free Homogeneous Dose Retest to Identify Inhibitors of RecA-Intein Splicing Activity. [Related pubchem assays (depositor defined):AID2097, AID2223, AID489010, AID492950]. It counts as functional.

Data set [17] deals with T3, Delta-type opioid receptor. The data set is described as follows: HTS Image-Based Screen for Agonists of the DOR Receptor. [Related pubchem assays (depositor defined):AID1777, AID1786, AID2133]. It counts as functional.
The nature of data set [18]: DRD fibroblast viability loss – cell-based, non-viral oncogenic, luminescence, dose response (AID 1934). It counts as functional. Conditions: Homo sapiens.
Data set [19] can be described thus: THP-1 cell cytotoxicity, dose response, cytotoxicity control for non-replicating M. tuberculosis project (AID 489025). It counts as functional.
Data set [20] can be described thus: reduction of Shn3 3'UTR-driven luciferase in osteoblasts – cell-based, Clone20 osteoblasts, firefly luciferase, cherry-picked, dose response (AID 624132).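 Note: firefly luciferase luminescence from reporter carrying the Shn3 3'UTR in osteoblasts.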 In kind it is functional.
In data set [21] the target is T6, Replicative DNA helicase DnaB (Mycobacterium tuberculosis, UniProt P9WMR3).
T6 sequence (P9WMR3 whole entry): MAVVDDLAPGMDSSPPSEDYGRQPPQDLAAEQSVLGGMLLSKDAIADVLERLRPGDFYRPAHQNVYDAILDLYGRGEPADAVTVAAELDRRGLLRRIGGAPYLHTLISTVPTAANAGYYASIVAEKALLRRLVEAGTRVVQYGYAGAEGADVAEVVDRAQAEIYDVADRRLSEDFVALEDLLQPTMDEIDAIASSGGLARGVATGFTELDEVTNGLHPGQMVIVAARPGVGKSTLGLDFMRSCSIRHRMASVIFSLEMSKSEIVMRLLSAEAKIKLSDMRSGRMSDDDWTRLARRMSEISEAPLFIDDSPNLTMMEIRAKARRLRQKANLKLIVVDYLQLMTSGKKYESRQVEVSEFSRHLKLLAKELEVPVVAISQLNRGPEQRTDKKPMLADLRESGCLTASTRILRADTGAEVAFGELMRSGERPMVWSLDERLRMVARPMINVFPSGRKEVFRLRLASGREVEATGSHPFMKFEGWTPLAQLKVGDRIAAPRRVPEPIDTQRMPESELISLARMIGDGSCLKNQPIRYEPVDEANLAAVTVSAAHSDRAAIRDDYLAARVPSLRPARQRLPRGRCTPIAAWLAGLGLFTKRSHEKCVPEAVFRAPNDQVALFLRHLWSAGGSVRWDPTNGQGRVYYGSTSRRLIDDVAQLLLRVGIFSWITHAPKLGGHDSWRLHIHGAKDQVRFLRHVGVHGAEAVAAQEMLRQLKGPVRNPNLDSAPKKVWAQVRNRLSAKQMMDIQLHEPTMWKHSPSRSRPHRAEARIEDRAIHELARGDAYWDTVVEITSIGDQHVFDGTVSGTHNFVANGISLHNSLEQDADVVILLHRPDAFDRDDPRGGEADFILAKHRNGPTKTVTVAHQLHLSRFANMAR
The data set is described as follows: DnaB intein splicing inhibitors, dose response, biochemical, cell-free fluorescence (AID 449749). In kind it is functional.

Another data set concerns HEK293. Nature of the data set: cells. The settings on record: Homo sapiens.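 Note: cells exposed to compound for 14 hours overnight before viability readout.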
The target in the next data set is Tumor necrosis factor (Homo sapiens, UniProt P01375). The data set is described as follows: analog potency on TNFa NF-kB signaling – cell-based, revised, SAR follow-up (AID 2337). In kind it is functional.
Chain of Tumor necrosis factor (P01375 whole entry, the tested form may be a part): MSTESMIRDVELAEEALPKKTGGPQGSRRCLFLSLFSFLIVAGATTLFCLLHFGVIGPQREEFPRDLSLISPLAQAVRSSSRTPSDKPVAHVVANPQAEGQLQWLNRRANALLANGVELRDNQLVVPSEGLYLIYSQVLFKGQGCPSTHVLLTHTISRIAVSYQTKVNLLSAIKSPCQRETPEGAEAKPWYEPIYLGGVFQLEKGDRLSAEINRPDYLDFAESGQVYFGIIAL
Data set [22] concerns the target Nucleotide-binding oligomerization domain-containing protein 1 (Homo sapiens, UniProt Q9Y239). Nature of the data set: blockers of NOD1 pathway activity – revised, SAR follow-up (AID 2333). It counts as functional.
Data set [23] in a line: Luminescence Cell-Based Dose Confirmation HTS to Identify Inhibitors of Platelet Dense Granule Release. [Related pubchem assays: 1663 (Primary HTS), 1678 (Summary of Project)]. It counts as functional.
The next data set deals with Cytochrome P450 2C9 (Homo sapiens, UniProt P11712).
Chain of Cytochrome P450 2C9 (P11712 whole entry): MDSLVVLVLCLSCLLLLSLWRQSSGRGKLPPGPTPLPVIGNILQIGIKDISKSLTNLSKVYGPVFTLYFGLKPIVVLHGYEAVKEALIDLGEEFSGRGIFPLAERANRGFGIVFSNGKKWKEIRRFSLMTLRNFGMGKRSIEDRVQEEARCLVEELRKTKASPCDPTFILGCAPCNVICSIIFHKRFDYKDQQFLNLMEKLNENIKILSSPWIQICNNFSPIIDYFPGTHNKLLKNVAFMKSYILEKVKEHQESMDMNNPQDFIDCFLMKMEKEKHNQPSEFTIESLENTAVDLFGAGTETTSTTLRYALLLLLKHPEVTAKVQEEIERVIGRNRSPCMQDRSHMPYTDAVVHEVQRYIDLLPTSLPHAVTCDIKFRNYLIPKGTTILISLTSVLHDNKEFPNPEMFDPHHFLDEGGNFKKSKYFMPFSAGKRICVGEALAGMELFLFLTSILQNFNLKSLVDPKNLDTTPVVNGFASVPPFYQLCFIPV
In a further data set the target is Cytochrome P450 2D6 (Homo sapiens, UniProt P10635).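 Note: CYP2D6 member of a cytochrome P450 panel assay.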
Chain of Cytochrome P450 2D6 (P10635 whole entry): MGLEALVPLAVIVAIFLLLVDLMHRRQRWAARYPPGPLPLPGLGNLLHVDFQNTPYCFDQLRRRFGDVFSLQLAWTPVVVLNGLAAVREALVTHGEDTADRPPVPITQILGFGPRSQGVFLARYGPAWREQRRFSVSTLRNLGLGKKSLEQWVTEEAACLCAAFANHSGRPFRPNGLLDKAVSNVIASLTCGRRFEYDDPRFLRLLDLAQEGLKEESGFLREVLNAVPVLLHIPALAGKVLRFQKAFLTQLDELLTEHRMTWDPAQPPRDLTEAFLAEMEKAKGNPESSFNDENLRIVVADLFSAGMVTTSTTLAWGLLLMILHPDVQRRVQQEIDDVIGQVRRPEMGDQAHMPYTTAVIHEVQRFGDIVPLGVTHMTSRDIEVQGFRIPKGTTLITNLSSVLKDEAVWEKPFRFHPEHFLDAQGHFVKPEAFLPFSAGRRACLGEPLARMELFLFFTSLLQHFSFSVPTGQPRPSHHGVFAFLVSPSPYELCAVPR
The target in a further data set is Cytochrome P450 2C19 (Homo sapiens, UniProt P33261). Nature of the data set: Cytochrome panel assay with activity outcomes. Panel member name: p450-cyp2c19 Compounds with AC50 equal or less than 10 uM are considered active. Conditions: read-out: AC50. It counts as functional.
Data set [24] has as its target Luciferin 4-monooxygenase (Photinus pyralis, UniProt P08659). Nature of the data set: inhibition of purified Photinus pyralis luciferase – biochemical, luminescence, dose response (AID 1891).

Molecules are shown by their SMILES. pIC50: −log10 of the molar value. Activity calls are given as the source filed them.

T3 sequence (P41143 whole entry): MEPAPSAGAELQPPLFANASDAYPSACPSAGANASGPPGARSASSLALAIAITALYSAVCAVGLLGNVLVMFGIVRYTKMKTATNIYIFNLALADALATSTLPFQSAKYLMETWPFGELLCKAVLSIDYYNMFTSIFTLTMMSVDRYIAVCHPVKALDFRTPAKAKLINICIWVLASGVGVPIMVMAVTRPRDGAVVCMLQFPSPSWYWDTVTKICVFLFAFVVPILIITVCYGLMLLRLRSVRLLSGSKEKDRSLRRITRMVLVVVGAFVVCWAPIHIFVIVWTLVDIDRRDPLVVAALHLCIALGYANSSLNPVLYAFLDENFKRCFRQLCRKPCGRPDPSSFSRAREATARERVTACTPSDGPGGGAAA
T2 sequence (Q8VNN2 whole entry): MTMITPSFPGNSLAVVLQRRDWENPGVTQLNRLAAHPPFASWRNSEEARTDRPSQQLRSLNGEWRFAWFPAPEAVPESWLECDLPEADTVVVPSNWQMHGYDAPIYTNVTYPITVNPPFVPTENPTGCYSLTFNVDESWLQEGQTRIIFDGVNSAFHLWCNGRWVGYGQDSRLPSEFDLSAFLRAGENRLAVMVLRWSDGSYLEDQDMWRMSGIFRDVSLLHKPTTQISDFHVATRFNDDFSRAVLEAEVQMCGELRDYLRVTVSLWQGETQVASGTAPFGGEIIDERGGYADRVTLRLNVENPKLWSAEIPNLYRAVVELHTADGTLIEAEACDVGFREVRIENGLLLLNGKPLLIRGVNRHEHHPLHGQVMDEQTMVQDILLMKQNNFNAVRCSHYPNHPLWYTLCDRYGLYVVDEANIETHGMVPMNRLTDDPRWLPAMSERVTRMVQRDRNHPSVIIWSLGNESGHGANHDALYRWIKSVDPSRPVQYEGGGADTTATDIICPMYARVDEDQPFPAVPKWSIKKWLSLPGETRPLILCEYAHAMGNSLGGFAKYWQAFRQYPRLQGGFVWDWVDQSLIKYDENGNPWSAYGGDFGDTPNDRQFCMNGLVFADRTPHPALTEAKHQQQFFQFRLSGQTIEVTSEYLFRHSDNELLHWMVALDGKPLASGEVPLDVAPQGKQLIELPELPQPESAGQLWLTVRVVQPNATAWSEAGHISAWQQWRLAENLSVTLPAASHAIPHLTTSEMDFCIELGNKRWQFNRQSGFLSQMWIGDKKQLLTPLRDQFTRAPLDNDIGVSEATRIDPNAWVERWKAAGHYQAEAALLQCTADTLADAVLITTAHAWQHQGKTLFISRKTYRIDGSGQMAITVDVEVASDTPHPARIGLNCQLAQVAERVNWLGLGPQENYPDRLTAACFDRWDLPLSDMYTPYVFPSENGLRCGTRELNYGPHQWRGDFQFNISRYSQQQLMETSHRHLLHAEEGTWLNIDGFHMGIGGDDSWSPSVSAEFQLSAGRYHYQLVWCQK
Chain of Keap1/Nrf2 (Q16236 whole entry): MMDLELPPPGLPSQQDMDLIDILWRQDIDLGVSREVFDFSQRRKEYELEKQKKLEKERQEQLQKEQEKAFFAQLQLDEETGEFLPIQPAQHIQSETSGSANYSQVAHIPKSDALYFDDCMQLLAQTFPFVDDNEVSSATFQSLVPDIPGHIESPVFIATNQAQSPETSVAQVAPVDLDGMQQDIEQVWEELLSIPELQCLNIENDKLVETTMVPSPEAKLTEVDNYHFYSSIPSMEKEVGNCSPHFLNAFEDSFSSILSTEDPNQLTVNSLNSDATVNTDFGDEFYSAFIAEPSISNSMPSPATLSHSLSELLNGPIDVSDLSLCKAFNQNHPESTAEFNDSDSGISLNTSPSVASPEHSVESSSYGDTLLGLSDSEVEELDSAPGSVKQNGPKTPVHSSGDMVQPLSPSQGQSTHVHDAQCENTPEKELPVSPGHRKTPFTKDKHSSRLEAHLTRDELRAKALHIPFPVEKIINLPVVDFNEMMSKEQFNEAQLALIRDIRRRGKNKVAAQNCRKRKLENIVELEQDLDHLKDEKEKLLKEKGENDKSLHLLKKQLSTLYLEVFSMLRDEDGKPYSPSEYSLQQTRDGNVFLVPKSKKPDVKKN
Chain of Keap1/Nrf2 (Q14145 whole entry): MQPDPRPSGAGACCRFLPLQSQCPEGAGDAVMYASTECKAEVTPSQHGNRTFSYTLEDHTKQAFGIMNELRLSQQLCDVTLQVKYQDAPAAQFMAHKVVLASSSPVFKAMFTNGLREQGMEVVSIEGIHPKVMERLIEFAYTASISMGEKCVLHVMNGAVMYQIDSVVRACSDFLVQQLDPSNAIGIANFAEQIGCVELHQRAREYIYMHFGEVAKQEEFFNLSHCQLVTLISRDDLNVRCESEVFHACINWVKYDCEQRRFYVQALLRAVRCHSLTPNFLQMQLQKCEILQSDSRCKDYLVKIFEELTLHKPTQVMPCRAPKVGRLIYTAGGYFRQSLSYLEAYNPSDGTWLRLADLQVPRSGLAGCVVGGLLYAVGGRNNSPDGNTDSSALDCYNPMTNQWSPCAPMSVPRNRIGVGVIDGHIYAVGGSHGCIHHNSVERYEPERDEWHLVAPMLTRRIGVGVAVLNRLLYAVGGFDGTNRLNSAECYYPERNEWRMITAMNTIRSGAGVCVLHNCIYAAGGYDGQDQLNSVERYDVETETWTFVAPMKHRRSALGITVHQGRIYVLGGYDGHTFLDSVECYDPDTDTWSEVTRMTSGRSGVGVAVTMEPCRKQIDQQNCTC

As for `CCN1C(=O)NC(=O)/C(=C\c2cn(CC(=O)N3CCCCC3)c3ccccc23)C1=O`, on Keap1/Nrf2, the AC50 was 35.9 µM (active).

Turning to `CCS(=O)(=O)c1ncc(Cl)c(C(=O)Nc2ccc(S(=O)(=O)N(C)c3ccccc3)cc2)n1`, the EC50 in data set [1] is 5.71 µM (active); in [3], > 120 µM (not active); in the data set with BJ [5] it was 6.38 µM (inconclusive); at Beta-galactosidase [6], > 40 µM (inactive); in the data set on BJ [8] it was 5.62 µM (inconclusive); at Beta-galactosidase [9], > 31.5 µM (inactive). Besides, the EC50 at Mu-type opioid receptor is > 32 µM (inactive); in the data set on BJ [11] it was 0.784 µM (active); in [15] it was 8.51 µM (active); on Protein RecA, 1 µM (active); in data set [17], > 32 µM (inactive); in data set [18] it was 4.16 µM (active). Moreover, the IC50 in [2] is 6.56 µM (active); in the data set “cells”, > 50 µM (active); in data set [4], 59.5 µM (inactive); in data set [13], 9.44 µM (active); in data set [14] it was 3.56 µM (active). For the same compound, the half-maximal activity concentration (AC50) in data set [7] is 21.2 µM (active); in data set [10], 10.7 µM (active); in the data set with INS1, 5.7 µM (active); on Paired box protein Pax-8, 5.12 µM (active); in [16] it was 1.91 µM (active); in data set [20] it was 0.308 µM (active). Also, the half-maximal activity concentration (AC50) in [21] was 1.14 µM (active). In [12], this compound showed a pIC50 of 5.38. Also, in [19], the CC50 was 10.6 µM (active).

As to `CC(=O)c1ccc(N2CCN(S(=O)(=O)c3ccc4c(c3)CC(C)N4C(C)=O)CC2)cc1` (configuration not stated), the IC50 in the data set with HEK293 was > 20 µM (inactive); on Tumor necrosis factor, 6.5 µM (active); in [22], 4.42 µM (active). The concentration at half-maximal activity (AC50) with INS1 is 6.79 µM (active).

For `Cc1ccc(NC(=O)c2cc(NC(=O)CCCC(=O)O)ccc2Cl)cc1Cl`, the EC50 in data set [23] and in [24] was > 112 µM (not active) in each case. For the same compound, the AC50 is 15.8 µM (inconclusive) on Cytochrome P450 2C9, “inconclusive” at Cytochrome P450 2D6 and 0.891 µM (inconclusive) on Cytochrome P450 2C19.

Turning to `C#C[C@H](N)CCC(=O)O`, the half-maximal activity concentration (AC50) result at Cytochrome P450 2D6 is recorded as “inconclusive”.

The values are drawn from ChEMBL document CHEMBL1201862, “PubChem BioAssay data set” (2004).
